Data published in patent US10464922B2, “Metalloenzyme inhibitor compounds” (NQP 1598 LTD., priority 2015, dated 2019).
≈ marks a conversion by molar mass, not a printed value. Like-named read-outs stand apart in the source and are kept apart here.

Experiments:
C. albicans (ATCC 90028) = test: Minimum inhibitory concentration, in vitro broth microdilution assay (CLSI M27-A2); type: cell-based, Candida albicans; conditions: for MIC: Candida albicans, ATCC90028, 48 h, read-out: Candida albicans MIC
Method: The antifungal potency of the test compounds was measured using the in vitro broth microdilution assay under assay conditions described by the Clinical and Laboratory Standards Institute (CLSI M27-A2). The test compounds were dissolved in 100% DMSO, suspended completely by sonication or vortexing, diluted by 2-fold serial titrations in the same vehicle, for a total of 11 test concentrations. A 4 μL aliquot of each dilution was added to 196 μL of RPMI-1640+MOPS medium seeded with the C. albicans (ATCC 90028) suspension in wells of a 96 well plate (fungal cell count: 1×10^3 to 1×10^4 colony forming units per mL). The final volume was 200 μL in each well and the final DMSO concentration was 2 percent. The inoculated plates were incubated for 2 days at 36° C. Following incubation, the test plates were visually examined and wells were scored for growth to define the minimum inhibitory concentration. […] Each test substance was evaluated in duplicate. Vehicle-control and an active reference agent (e.g., posaconazole) were used as blank and positive controls, respectively.

A. fumigatus = A. fumigatus MIC at 100% growth inhibition (CLSI M38-A2); type: cell-based, Aspergillus fumigatus; conditions: for MIC: Aspergillus fumigatus, read-out: Aspergillus fumigatus MIC
Method: A. fumigatus MICs were determined at 100% growth inhibition following CLSI guidelines at a concentration range of 8-0.0078 μg/mL (CLSI M38-A2).

[1] = ATCC 90028, about 50% growth reduction, 2 days at 36° C., range tested 8-0.0078 μg/mL, values given as ranges
[2] = 100% growth inhibition, range tested 8-0.0078 μg/mL, values given as ranges

Structure (SMILES) | MIC (C. albicans (ATCC 90028); [1]) [µg/mL] | MIC (A. fumigatus; [2]) [µg/mL] | further results
CC(O)C(F)(F)c1ccc(N2CCN(c3ccc(-c4ccc(C(F)(F)[C@](O)(Cn5cnnn5)c5ccc(F)cc5F)nc4)cc3)CC2)cn1 (stereo partly drawn) [Example 99, (2R)-1-(5-(4-(4-(6-(1,1-difluoro-2-hydroxypropyl)pyridin-3-yl)piperazin-1-yl)phenyl)pyridin-2-yl)-2-(2,4-difluorophenyl)-1,1-difluoro-3-(1H-tetrazol-1-yl) propan-2-ol] | 0.0078 to 0.01 (≈ 0.0114 to 0.0146 µM) | 0.25 to 1 (≈ 0.365 to 1.46 µM) | –
OC(c1ccc(N2CCN(c3ccc(-c4ccc(C(F)(F)[C@](O)(Cn5cnnn5)c5ccc(F)cc5F)nc4)cc3)CC2)nc1)C(F)(F)F (stereo partly drawn) [Example 34, (2R)-2-(2,4-difluorophenyl)-1,1-difluoro-3-(1H-tetrazol-1-yl)-1-(5-(4-(4-(5-(2,2,2-trifluoro-1-hydroxyethyl)pyridin-2-yl)piperazin-1-yl)phenyl)pyridin-2-yl) propan-2-ol] | 0.0078 to 0.01 (≈ 0.0113 to 0.0145 µM) | 0.25 to 1 (≈ 0.363 to 1.45 µM) | –
CCC(O)c1ccc(N2CCN(c3ccc(-c4ccc(C(F)(F)[C@](O)(Cn5cnnn5)c5ccc(F)cc5F)nc4)cc3)CC2)cc1 (some centres unmarked) [Example 39] | 0.01 to 0.1 (≈ 0.0154 to 0.154 µM) | 0.25 to 1 (≈ 0.386 to 1.54 µM) | –
NC(CC(F)(F)F)C(=O)Nc1ccc(N2CCN(c3ccc(-c4ccc(C(F)(F)[C@](O)(Cn5cnnn5)c5ccc(F)cc5F)nc4)cc3)CC2)cc1 (stereo partly drawn) [Example 88, 2-amino-N-(4-(4-(4-(6-((R)-2-(2,4-difluorophenyl)-1,1-difluoro-2-hydroxy-3-(1H-tetrazol-1-yl)propyl)pyridin-3-yl)phenyl)piperazin-1-yl)phenyl)-4,4,4-trifluorobutanamide] | – | – | MIC (C. albicans (ATCC 90028)): 0.01 to 0.1 µg/mL (≈ 0.0134 to 0.134 µM); MIC (A. fumigatus): > 8 µg/mL
CC(C)(O)c1ccc(N2CCN(c3ccc(-c4ccc(C(F)(F)[C@](O)(Cn5cnnn5)c5ccc(F)cc5F)nc4)cc3)CC2)cn1 [Example 47, (R)-2-(2,4-difluorophenyl)-1,1-difluoro-1-(5-(4-(4-(6-(2-hydroxypropan-2-yl)pyridin-3-yl)piperazin-1-yl)phenyl)pyridin-2-yl)-3-(1H-tetrazol-1-yl) propan-2-ol] | 0.01 to 0.1 (≈ 0.0154 to 0.154 µM) | 0.25 to 1 (≈ 0.385 to 1.54 µM) | –
CC[C@@H]([C@H](C)O)n1ncn(-c2ccc(N3CCN(c4ccc(-c5ccc(C(F)(F)[C@](O)(Cn6cnnn6)c6ccc(F)cc6F)nc5)cc4)CC3)cn2)c1=O [Example 124, 4-(5-(4-(4-(6-((R)-2-(2,4-difluorophenyl)-1,1-difluoro-2-hydroxy-3-(1H-tetrazol-1-yl)propyl)pyridin-3-yl)phenyl)piperazin-1-yl)pyridin-2-yl)-2-((2S,3S)-2-hydroxypentan-3-yl)-2,4-dihydro-3H-1,2,4-triazol-3-one] | 0.01 to 0.1 (≈ 0.0132 to 0.132 µM) | – | Aspergillus fumigatus MIC (A. fumigatus; [2]): 0.25 to 1.0 µg/mL
OC(c1cn(-c2ccc(N3CCN(c4ccc(-c5ccc(C(F)(F)[C@](O)(Cn6cnnn6)c6ccc(F)cc6F)nc5)cc4)CC3)cn2)nn1)C(F)(F)F (stereo partly drawn) [Example 111, (2R)-2-(2,4-difluorophenyl)-1,1-difluoro-3-(1H-tetrazol-1-yl)-1-(5-(4-(4-(6-(4-(2,2,2-trifluoro-1-hydroxyethyl)-1H-1,2,3-triazol-1-yl)pyridin-3-yl)piperazin-1-yl)phenyl)pyridin-2-yl) propan-2-ol] | 0.0078 to 0.01 (≈ 0.0103 to 0.0132 µM) | 0.25 to 1 (≈ 0.331 to 1.32 µM) | –
OC(c1cn(-c2ccc(N3CCN(c4ccc(-c5ccc(C(F)(F)C(O)(Cn6cnnn6)c6ccccc6F)nc5)cc4)CC3)cn2)nn1)C(F)(F)F (single isomer, unassigned; (-)) [110(−), (−)-1,1-difluoro-2-(2-fluorophenyl)-3-(1H-tetrazol-1-yl)-1-(5-(4-(4-(6-(4-(2,2,2-trifluoro-1-hydroxyethyl)-1H-1,2,3-triazol-1-yl)pyridin-3-1)piperazin-1-yl)phenyl)pyridin-2-yl) propan-2-ol] | – | – | Candida albicans MIC (C. albicans (ATCC 90028); [1]): >8 µg/mL; Aspergillus fumigatus MIC (A. fumigatus; [2]): >8 µg/mL
CC[C@@H]([C@H](C)O)n1ncn(-c2ccc(N3CCN(c4ccc(-c5ccc(C(F)(F)[C@](O)(Cn6cnnn6)c6ccc(F)cc6)nc5)cc4)CC3)cn2)c1=O [109(−), (−)-4-(5-(4-(4-(6-((R)-1,1-difluoro-2-(4-fluorophenyl)-2-hydroxy-3-(1H-tetrazol-1-yl)propyl)pyridin-3-yl)phenyl)piperazin-1-yl)pyridin-2-yl)-2-((2S,3S)-2-hydroxypentan-3-yl)-2,4-dihydro-3H-1,2,4-triazol-3-one] | – | – | Candida albicans MIC (C. albicans (ATCC 90028); [1]): 0.10 to 1.0 µg/mL; Aspergillus fumigatus MIC (A. fumigatus; [2]): 1.0 to 4.0 µg/mL
O=c1n(-c2ccc(N3CCN(c4ccc(-c5ccc(C(F)(F)[C@](O)(Cn6cnnn6)c6ccc(F)cc6F)nc5)cc4)CC3)cc2)cnn1CC(F)(F)F [Example 58, (R)-4-(4-(4-(4-(6-(2-(2,4-difluorophenyl)-1,1-difluoro-2-hydroxy-3-(1H-tetrazol-1-yl)propyl)pyridin-3-yl)phenyl)piperazin-1-yl)phenyl)-2-(2,2,2-trifluoroethyl)-2,4-dihydro-3H-1,2,4-triazol-3-one] | 0.0078 to 0.01 (≈ 0.0103 to 0.0133 µM) | 0.062 to 0.25 (≈ 0.0822 to 0.331 µM) | –
CC[C@@H]([C@H](C)O)n1ncn(-c2ccc(N3CCN(c4ccc(-c5ccc(C(F)(F)[C@](O)(Cn6cnnn6)c6ccccc6F)nc5)cc4)CC3)cn2)c1=O [102(+), 4-(5-(4-(4-(6-((R)-1,1-difluoro-2-(2-fluorophenyl)-2-hydroxy-3-(1H-tetrazol-1-yl)propyl)pyridin-3-yl)phenyl)piperazin-1-yl)pyridin-2-yl)-2-((2S,3S)-2-hydroxypentan-3-yl)-2,4-dihydro-3H-1,2,4-triazol-3-one] | – | – | Candida albicans MIC (C. albicans (ATCC 90028); [1]): ≤0.0078 to 0.010 µg/mL; Aspergillus fumigatus MIC (A. fumigatus; [2]): 0.25 to 1.0 µg/mL

More lines, main results first:

MIC (C. albicans (ATCC 90028); [1]) [µg/mL] | MIC (A. fumigatus; [2]) [µg/mL] | Structure (SMILES) | further results
0.0078 to 0.01 (≈ 0.0117 to 0.015 µM) | 0.25 to 1 (≈ 0.374 to 1.5 µM) | Cn1c(N2CCN(c3ccc(-c4ccc(C(F)(F)[C@](O)(Cn5cnnn5)c5ccc(F)cc5F)nc4)cc3)CC2)nc2ccc(C#N)cc21 [Example 79, (R)-2-(4-(4-(6-(2-(2,4-difluorophenyl)-1,1-difluoro-2-hydroxy-3-(1H-tetrazol-1-yl)propyl)pyridin-3-yl)phenyl)piperazin-1-yl)-1-methyl-1H-benzo [d] imidazole-6-carbonitrile] | –
0.0078 to 0.01 (≈ 0.0117 to 0.015 µM) | > 8 | Cn1c(N2CCN(c3ccc(-c4ccc(C(F)(F)[C@](O)(Cn5cnnn5)c5ccc(F)cc5F)nc4)cc3)CC2)nc2cc(C#N)ccc21 [Example 80, (R)-2-(4-(4-(6-(2-(2,4-difluorophenyl)-1,1-difluoro-2-hydroxy-3-(1H-tetrazol-1-yl)propyl)pyridin-3-yl)phenyl)piperazin-1-yl)-1-methyl-1H-benzo [d] imidazole-5-carbonitrile] | –
0.0078 to 0.01 (≈ 0.0127 to 0.0162 µM) | 0.25 to 1 (≈ 0.406 to 1.62 µM) | N#Cc1ccc(N2CCN(c3ccc(-c4ccc(C(F)(F)[C@](O)(Cn5cnnn5)c5ccc(F)cc5F)nc4)cc3)CC2)cn1 [Example 7, (R)-5-(4-(4-(6-(2-(2,4-difluorophenyl)-1,1-difluoro-2-hydroxy-3-(1H-tetrazol-1-yl)propyl)pyridin-3-yl)phenyl)piperazin-1-yl) picolinonitrile] | –
0.0078 to 0.01 (≈ 0.0123 to 0.0158 µM) | 1 to 4 (≈ 1.58 to 6.3 µM) | CC(O)c1ccc(N2CCN(c3ccc(-c4ccc(C(F)(F)[C@](O)(Cn5cnnn5)c5ccc(F)cc5F)nc4)cc3)CC2)cn1 (stereo partly drawn) [Example 44, (2R)-2-(2,4-difluorophenyl)-1,1-difluoro-1-(5-(4-(4-(6-(1-hydroxyethyl)pyridin-3-yl)piperazin-1-yl)phenyl)pyridin-2-yl)-3-(1H-tetrazol-1-yl) propan-2-ol] | –
0.0078 to 0.01 (≈ 0.0116 to 0.0149 µM) | > 8 | N#Cc1ccc2sc(N3CCN(c4ccc(-c5ccc(C(F)(F)[C@](O)(Cn6cnnn6)c6ccc(F)cc6F)nc5)cc4)CC3)nc2c1 [Example 76, (R)-2-(4-(4-(6-(2-(2,4-difluorophenyl)-1,1-difluoro-2-hydroxy-3-(1H-tetrazol-1-yl)propyl)pyridin-3-yl)phenyl)piperazin-1-yl) benzo [d] thiazole-5-carbonitrile] | –
0.01 to 0.1 (≈ 0.0165 to 0.165 µM) | > 8 | Nc1ccc(N2CCN(c3ccc(-c4ccc(C(F)(F)[C@](O)(Cn5cnnn5)c5ccc(F)cc5F)nc4)cc3)CC2)cc1 [Example 14, (R)-1-(5-(4-(4-(4-aminophenyl)piperazin-1-yl)phenyl)pyridin-2-yl)-2-(2,4-difluorophenyl)-1,1-difluoro-3-(1H-tetrazol-1-yl) propan-2-ol] | –
0.01 to 0.1 (≈ 0.0146 to 0.146 µM) | 0.062 to 0.25 (≈ 0.0903 to 0.364 µM) | Cn1ncn(-c2ccc(N3CCN(c4ccc(-c5ccc(C(F)(F)[C@](O)(Cn6cnnn6)c6ccc(F)cc6F)nc5)cc4)CC3)cc2)c1=O [Example 53, (R)-4-(4-(4-(4-(6-(2-(2,4-difluorophenyl)-1,1-difluoro-2-hydroxy-3-(1H-tetrazol-1-yl)propyl)pyridin-3-yl)phenyl)piperazin-1-yl)phenyl)-2-methyl-2,4-dihydro-3H-1,2,4-triazol-3-one] | –
0.0078 to 0.01 (≈ 0.0123 to 0.0158 µM) | 0.25 to 1 (≈ 0.395 to 1.58 µM) | N#Cc1ccc(N2CCN(c3ccc(-c4ccc(C(F)(F)[C@](O)(Cn5cnnn5)c5ccc(F)cc5F)nc4)cc3)CC2)c(F)c1 [Example 11, (R)-4-(4-(4-(6-(2-(2,4-difluorophenyl)-1,1-difluoro-2-hydroxy-3-(1H-tetrazol-1-yl)propyl)pyridin-3-yl)phenyl)piperazin-1-yl)-3-fluorobenzonitrile] | –
